The source of these data is patent US7989449B2, “4,5-dihydro-oxazol-2-yl amine derivatives” (Hoffman-La Roche Inc., priority 2008, dated 2011).

The structures appear in SMILES notation. Where a name gives a salt, the structure may show the parent alone.

The IC50 is the midpoint of a concentration-inhibition curve.

T1 sequence (P56817 46-501): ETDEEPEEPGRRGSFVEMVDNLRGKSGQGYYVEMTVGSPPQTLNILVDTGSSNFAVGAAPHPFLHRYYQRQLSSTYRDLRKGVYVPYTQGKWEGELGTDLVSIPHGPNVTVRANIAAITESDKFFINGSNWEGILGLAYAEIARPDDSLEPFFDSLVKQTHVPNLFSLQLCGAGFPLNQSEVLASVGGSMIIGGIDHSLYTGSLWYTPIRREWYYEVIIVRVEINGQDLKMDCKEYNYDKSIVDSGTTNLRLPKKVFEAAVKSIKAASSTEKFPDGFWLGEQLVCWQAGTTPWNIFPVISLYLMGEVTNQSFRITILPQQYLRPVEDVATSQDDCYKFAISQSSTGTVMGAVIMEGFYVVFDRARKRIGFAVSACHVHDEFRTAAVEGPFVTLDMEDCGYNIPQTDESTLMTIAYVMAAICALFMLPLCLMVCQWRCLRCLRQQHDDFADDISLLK

This assay concerns the target T1, 6his-tagged full length BACE 1 from SF9 cells (Homo sapiens, UniProt P56817).
T1 construct: 6his-tagged full length BACE 1 from SF9 cells; made in house; host or cells: Sf9 insect cells
Description: BACE1 MR121 protease assay. It is filed as biochemical. The note with it: 30 nM 6his-BACE-1, 300 nM substrate peptide WSEVNLDAEFRC-MR121, Na-acetate pH 4.0, fluorescence. How it is done: Assay plate: 384 well microtiter plate, Corning clear, flat bottom, non binding surface
Assaybuffer: 100 mM Na-acetate pH 4.0, 20 mM EDTA, 0.05% BSA
BACE-1: 6his-tagged full length BACE 1 from SF9 cells
Substrate peptide: WSEVNLDAEFRC-MR121
BACE1 MR121 protease assay
39 μl of a 38 nM 6his-BACE-1 solution in assay buffer (final conc. in the assay: 30 nM) were pipetted into the assay plate. 1 μl of a concentration of a potential inhibitor in dimethylsulfoxide was added to the enzyme and incubated for 10 min. Finally, 10 μl of a 1.5 μM solution of the substrate in assay buffer (final conc. in the assay: 300 nM) was added to start the enzymatic reaction. After strong mixing for 2 min the enzymatic reaction was followed by measuring the fluorescence intensity every two minutes for 15 min on a suitable fluorescence reader. […] The slope was calculated from the linear part of the kinetic as a measure of the activity of BACE-1. A range of concentrations of the potential inhibitor was used to generate data for calculating the concentration of inhibitor resulting in 50% of the effect (e.g. IC50, the concentration of the compound inhibiting the BACE-1 activity by 50%).
For `COc1ccc([C@@]2(c3cccc(-c4cccc(Cl)c4)c3)COC(N)=N2)cc1` [Example 39A, (R)-4-(3′-Chloro-biphenyl-3-yl)-4-(4-methoxy-phenyl)-4,5-dihydro-oxazol-2-ylamine], half-maximal inhibition (IC50) required 440 nM.
In the case of `Cc1cc(C2(c3ccc(F)c(-c4cncc(Cl)c4)c3)COC(N)=N2)ccc1OC(F)F` (racemic) [Example 205, (RS)-4-[3-(5-Chloro-pyridin-3-yl)-4-fluoro-phenyl]-4-(4-difluoromethoxy-3-methyl-phenyl)-4,5-dihydro-oxazol-2-ylamine formate] it was 90 nM; in that of `COc1ccc(C2(c3cccc(-c4cccc(Cl)c4)c3)COC(N)=N2)cc1` (racemic) [Example 14, (RS)-4-(3′-Chloro-biphenyl-3-yl)-4-(4-methoxy-phenyl)-4,5-dihydro-oxazol-2-ylamine formate], 810 nM; in that of `Cc1cc(C2(c3cccc(-c4cncc(Cl)c4)c3)COC(N)=N2)ccc1OC(F)F` (racemic) [Example 94, (RS)-4-[3-(5-Chloro-pyridin-3-yl)-phenyl]-4-(4-difluoromethoxy-3-methyl-phenyl)-4,5-dihydro-oxazol-2-ylamine formate], 60 nM.
The result for `CCOc1ccc(C2(c3cccc(-c4cccc(Cl)c4)c3)COC(N)=N2)cc1C` (racemic) [Example 66, (RS)-4-(3′-Chloro-biphenyl-3-yl)-4-(4-ethoxy-3-methyl-phenyl)-4,5-dihydro-oxazol-2-ylamine formate] reads 740 nM; that for `CCOCc1cc(Nc2cccc(OC)c2)cc(C2(c3ccc(OC(F)F)c(C)c3)COC(N)=N2)c1` (racemic) [Example 194, (RS)-4-(4-Difluoromethoxy-3-methyl-phenyl)-4-[3-ethoxymethyl-5-(3-methoxy-phenylamino)-phenyl]-4,5-dihydro-oxazol-2-ylamine], 140 nM.
The result for `COc1cncc(-c2cc(C3(c4ccc(OC(F)F)c(C)c4)COC(N)=N3)ccc2F)c1` (racemic) [Example 121, (RS)-4-(4-Difluoromethoxy-3-methyl-phenyl)-4-[4-fluoro-3-(5-methoxy-pyridin-3-yl)-phenyl]-4,5-dihydro-oxazol-2-ylamine formate] reads 50 nM; that for `Cc1cc(C2(c3cccc(-c4cncc(F)c4)c3)COC(N)=N2)ccc1OC(F)F` (racemic) [Example 102, (RS)-4-(4-Difluoromethoxy-3-methyl-phenyl)-4-[3-(5-fluoro-pyridin-3-yl)-phenyl]-4,5-dihydro-oxazol-2-ylamine formate], 210 nM.
`NC1=NC(c2cccc(-c3cncnc3)c2)(c2ccc(OC(F)F)c(Cl)c2)CO1` (racemic) [Example 118, (RS)-4-(3-Chloro-4-difluoromethoxy-phenyl)-4-(3-pyrimidin-5-yl-phenyl)-4,5-dihydro-oxazol-2-ylamine formate] returned an IC50 of 200 nM.
In the case of `NC1=NC(c2ccc(OC(F)F)cc2)(c2cccc(-c3cccnc3F)c2)CO1` (racemic) [Example 89, (RS)-4-(4-Difluoromethoxy-phenyl)-4-[3-(2-fluoro-pyridin-3-yl)-phenyl]-4,5-dihydro-oxazol-2-ylamine formate] it was 350 nM.
Molecule `COc1ccc(C2(c3cccc(-c4cccnc4F)c3)COC(N)=N2)cc1C` (racemic) [Example 41, (RS)-4-[3-(2-Fluoro-pyridin-3-yl)-phenyl]-4-(4-methoxy-3-methyl-phenyl)-4,5-dihydro-oxazol-2-ylamine formate] returned an IC50 of 800 nM.
Turning to `COc1ccc(F)c(-c2cccc(C3(c4ccc(OC(F)F)c(C)c4)COC(N)=N3)c2)c1` (racemic) [Example 105, (RS)-4-(4-Difluoromethoxy-3-methyl-phenyl)-4-(2′-fluoro-5′-methoxy-biphenyl-3-yl)-4,5-dihydro-oxazol-2-ylamine formate], the IC50 amounted to 130 nM.
In the case of `COc1cncc(-c2cccc(C3(c4ccc(OC(F)F)cc4)COC(N)=N3)c2)c1` (racemic) [Example 90, (RS)-4-(4-Difluoromethoxy-phenyl)-4-[3-(5-methoxy-pyridin-3-yl)-phenyl]-4,5-dihydro-oxazol-2-ylamine formate] it was 150 nM; in that of `CCOc1ccc(C2(c3cccc(-c4cncc(OC)c4)c3)COC(N)=N2)cc1` (racemic) [Example 83, (RS)-4-(4-Ethoxy-phenyl)-4-[3-(5-methoxy-pyridin-3-yl)-phenyl]-4,5-dihydro-oxazol-2-ylamine formate], 970 nM.
`COc1ccc(C2(c3cccc(-c4cncc(F)c4)c3)COC(N)=N2)cc1Cl` (racemic) [Example 78, (RS)-4-(3-Chloro-4-methoxy-phenyl)-4-[3-(5-fluoro-pyridin-3-yl)-phenyl]-4,5-dihydro-oxazol-2-ylamine] showed an IC50 of 640 nM.
